According to ChEMBL document CHEMBL4507329, “Data for DCP probe BTZO-1” (2021):

How the values were obtained:
[1] = target: Mitogen-activated protein kinase 12 (Homo sapiens) (UniProt P53778); conditions: Compound concentration 1000.0 nM
[2] = target: Wee1-like protein kinase (Homo sapiens) (UniProt P30291); conditions: Compound concentration 1000.0 nM
[3] = target: Serine/threonine-protein kinase DCLK3 (Homo sapiens) (UniProt Q9C098); conditions: Compound concentration 1000.0 nM
[4] = target: Non-receptor tyrosine-protein kinase TYK2 (Homo sapiens) (UniProt P29597); conditions: Compound concentration 1000.0 nM
[5] = target: Serine/threonine-protein kinase MRCK alpha (Homo sapiens) (UniProt Q5VT25); conditions: Compound concentration 1000.0 nM
[6] = system: ALK tyrosine kinase receptor (Homo sapiens), Q9UM73 [L1196M]; conditions: Compound concentration 1000.0 nM
[7] = target: Tyrosine-protein kinase JAK3 (Homo sapiens) (UniProt P52333); conditions: Compound concentration 1000.0 nM
[8] = target: Serine/threonine-protein kinase 38-like (Homo sapiens) (UniProt Q9Y2H1); conditions: Compound concentration 1000.0 nM
[9] = system: Serine/threonine-protein kinase B-raf (Homo sapiens), P15056 [V600E]; conditions: Compound concentration 1000.0 nM
[10] = target: Serine/threonine-protein kinase mTOR (Homo sapiens) (UniProt P42345); conditions: Compound concentration 1000.0 nM
[11] = target: Ribosomal protein S6 kinase alpha-1 (Homo sapiens) (UniProt Q15418); conditions: Compound concentration 1000.0 nM
[12] = target: cAMP-dependent protein kinase catalytic subunit PRKX (Homo sapiens) (UniProt P51817); conditions: Compound concentration 1000.0 nM
[13] = target: Beta-3 adrenergic receptor (Homo sapiens) (UniProt P13945); conditions: Compound concentration 10.0 uM
[14] = target: Casein kinase I isoform gamma-2 (Homo sapiens) (UniProt P78368); conditions: Compound concentration 1000.0 nM
[15] = target: Cyclin-dependent kinase 8 (Homo sapiens, UniProt P49336); conditions: Compound concentration 1000.0 nM
[16] = target: Serine/threonine-protein kinase LATS1 (Homo sapiens) (UniProt O95835); conditions: Compound concentration 1000.0 nM
[17] = system: Receptor-type tyrosine-protein kinase FLT3 (Homo sapiens), P36888 [N841I]; conditions: Compound concentration 1000.0 nM
[18] = target: Insulin receptor (Homo sapiens) (UniProt P06213); conditions: Compound concentration 1000.0 nM
[19] = target: cAMP-dependent protein kinase catalytic subunit alpha (Homo sapiens) (UniProt P17612); conditions: Compound concentration 1000.0 nM
[20] = target: Fibroblast growth factor receptor 4 (Homo sapiens) (UniProt P22455); conditions: Compound concentration 1000.0 nM
[21] = target: SRSF protein kinase 3 (Homo sapiens) (UniProt Q9UPE1); conditions: Compound concentration 1000.0 nM
[22] = target: Mast/stem cell growth factor receptor Kit (Homo sapiens) (UniProt P10721); conditions: Compound concentration 1000.0 nM
[23] = target: Phosphatidylinositol 4-kinase beta (Homo sapiens) (UniProt Q9UBF8); conditions: Compound concentration 1000.0 nM
[24] = target: Mitogen-activated protein kinase 10 (Homo sapiens) (UniProt P53779); conditions: Compound concentration 1000.0 nM
[25] = system: Mast/stem cell growth factor receptor Kit (Homo sapiens), P10721 [D816V]; conditions: Compound concentration 1000.0 nM
[26] = target: Muscarinic acetylcholine receptor M2 (Homo sapiens) (UniProt P08172); conditions: Compound concentration 10.0 uM
[27] = target: Citron Rho-interacting kinase (Homo sapiens) (UniProt O14578); conditions: Compound concentration 1000.0 nM
[28] = target: Tyrosine-protein kinase ZAP-70 (Homo sapiens) (UniProt P43403); conditions: Compound concentration 1000.0 nM
[29] = target: SRSF protein kinase 2 (Homo sapiens) (UniProt P78362); conditions: Compound concentration 1000.0 nM
[30] = target: Beta-1 adrenergic receptor (Homo sapiens) (UniProt P08588); conditions: Compound concentration 10.0 uM
[31] = target: cGMP-dependent protein kinase 2 (Homo sapiens) (UniProt Q13237); conditions: Compound concentration 1000.0 nM
[32] = target: Uncharacterized serine/threonine-protein kinase SBK3 (Homo sapiens) (UniProt P0C264); conditions: Compound concentration 1000.0 nM
[33] = target: Cyclin-dependent kinase 18 (Homo sapiens) (UniProt Q07002); conditions: Compound concentration 1000.0 nM
[34] = target: Receptor-interacting serine/threonine-protein kinase 2 (Homo sapiens) (UniProt O43353); conditions: Compound concentration 1000.0 nM
[35] = system: Epidermal growth factor receptor (Homo sapiens), P00533 [UNDEFINED MUTATION]; conditions: Compound concentration 1000.0 nM
[36] = target: Cyclin-G-associated kinase (Homo sapiens) (UniProt O14976); conditions: Compound concentration 1000.0 nM
[37] = target: Alpha-1B adrenergic receptor (Homo sapiens) (UniProt P35368); conditions: Compound concentration 10.0 uM
[38] = target: Cyclin-dependent kinase 11A (Homo sapiens) (UniProt Q9UQ88); conditions: Compound concentration 1000.0 nM
[39] = target: Protein-tyrosine kinase 2-beta (Homo sapiens) (UniProt Q14289); conditions: Compound concentration 1000.0 nM
[40] = target: Mitogen-activated protein kinase 13 (Homo sapiens) (UniProt O15264); conditions: Compound concentration 1000.0 nM
[41] = target: Serine/threonine-protein kinase Nek2 (Homo sapiens) (UniProt P51955); conditions: Compound concentration 1000.0 nM
[42] = target: Dual specificity mitogen-activated protein kinase kinase 1 (Homo sapiens) (UniProt Q02750); conditions: Compound concentration 1000.0 nM
[43] = target: Serine/threonine-protein kinase ULK3 (Homo sapiens) (UniProt Q6PHR2); conditions: Compound concentration 1000.0 nM
[44] = target: Dual specificity protein kinase CLK2 (Homo sapiens) (UniProt P49760); conditions: Compound concentration 1000.0 nM
[45] = target: Tyrosine-protein kinase JAK1 (Homo sapiens) (UniProt P23458); conditions: Compound concentration 1000.0 nM

Dual specificity mitogen-activated protein kinase kinase 1 (Homo sapiens), sequence (Q02750 whole entry): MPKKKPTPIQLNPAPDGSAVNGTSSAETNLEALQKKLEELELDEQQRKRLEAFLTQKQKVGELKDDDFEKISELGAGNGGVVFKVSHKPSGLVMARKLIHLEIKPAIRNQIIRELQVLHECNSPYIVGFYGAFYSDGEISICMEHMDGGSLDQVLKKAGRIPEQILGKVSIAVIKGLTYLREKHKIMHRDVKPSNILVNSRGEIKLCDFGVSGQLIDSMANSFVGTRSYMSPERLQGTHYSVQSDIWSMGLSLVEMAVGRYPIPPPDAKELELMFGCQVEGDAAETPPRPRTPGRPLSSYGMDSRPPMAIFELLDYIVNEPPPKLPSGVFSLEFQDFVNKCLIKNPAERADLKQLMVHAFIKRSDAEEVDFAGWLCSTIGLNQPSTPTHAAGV
cAMP-dependent protein kinase catalytic subunit PRKX (Homo sapiens), sequence (P51817 whole entry): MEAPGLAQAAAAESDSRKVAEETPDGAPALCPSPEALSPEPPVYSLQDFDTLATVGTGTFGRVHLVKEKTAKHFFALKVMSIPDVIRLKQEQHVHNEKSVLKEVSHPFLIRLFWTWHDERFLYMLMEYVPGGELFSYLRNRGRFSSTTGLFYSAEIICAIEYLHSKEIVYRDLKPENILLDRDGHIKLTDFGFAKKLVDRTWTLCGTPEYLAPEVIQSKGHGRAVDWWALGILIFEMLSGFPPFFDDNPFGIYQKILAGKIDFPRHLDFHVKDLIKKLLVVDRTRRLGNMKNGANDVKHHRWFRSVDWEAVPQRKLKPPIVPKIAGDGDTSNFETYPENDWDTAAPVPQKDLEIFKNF
Serine/threonine-protein kinase 38-like (Homo sapiens), sequence (Q9Y2H1 2-464 limits assumed): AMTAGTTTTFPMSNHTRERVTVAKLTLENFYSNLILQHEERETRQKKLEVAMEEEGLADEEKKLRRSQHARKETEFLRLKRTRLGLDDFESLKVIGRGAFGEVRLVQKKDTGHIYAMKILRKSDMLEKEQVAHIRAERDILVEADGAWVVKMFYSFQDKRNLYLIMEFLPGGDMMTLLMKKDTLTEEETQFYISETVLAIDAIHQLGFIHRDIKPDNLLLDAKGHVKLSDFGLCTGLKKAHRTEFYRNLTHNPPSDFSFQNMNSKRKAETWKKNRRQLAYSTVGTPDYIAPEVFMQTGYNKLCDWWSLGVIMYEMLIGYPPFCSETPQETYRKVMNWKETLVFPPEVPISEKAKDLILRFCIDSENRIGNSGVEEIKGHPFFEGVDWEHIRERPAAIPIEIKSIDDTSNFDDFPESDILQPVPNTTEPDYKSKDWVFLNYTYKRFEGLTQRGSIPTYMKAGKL
Fibroblast growth factor receptor 4 (Homo sapiens), sequence (P22455 22-802 limits assumed): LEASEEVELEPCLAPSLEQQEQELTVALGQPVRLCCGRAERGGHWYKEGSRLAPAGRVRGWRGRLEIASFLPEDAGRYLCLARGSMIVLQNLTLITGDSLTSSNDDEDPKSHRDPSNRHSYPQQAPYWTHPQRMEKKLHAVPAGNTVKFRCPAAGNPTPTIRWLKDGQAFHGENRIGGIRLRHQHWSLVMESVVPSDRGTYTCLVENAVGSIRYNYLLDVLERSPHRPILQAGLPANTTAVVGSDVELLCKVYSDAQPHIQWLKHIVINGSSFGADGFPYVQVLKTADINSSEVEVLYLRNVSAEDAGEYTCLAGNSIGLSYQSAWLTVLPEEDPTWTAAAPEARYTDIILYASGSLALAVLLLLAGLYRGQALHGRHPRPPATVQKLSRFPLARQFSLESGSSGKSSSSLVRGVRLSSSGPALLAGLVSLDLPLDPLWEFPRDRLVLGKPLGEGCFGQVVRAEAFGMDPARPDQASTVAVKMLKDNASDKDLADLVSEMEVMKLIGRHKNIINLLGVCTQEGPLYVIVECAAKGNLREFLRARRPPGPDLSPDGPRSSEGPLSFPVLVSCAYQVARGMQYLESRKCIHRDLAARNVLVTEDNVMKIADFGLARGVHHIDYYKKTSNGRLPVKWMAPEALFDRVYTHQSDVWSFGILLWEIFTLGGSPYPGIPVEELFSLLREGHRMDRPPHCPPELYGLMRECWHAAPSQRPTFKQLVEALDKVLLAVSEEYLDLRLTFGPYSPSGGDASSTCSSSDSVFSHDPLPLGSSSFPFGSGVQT
Protein-tyrosine kinase 2-beta (Homo sapiens), sequence (Q14289 whole entry, looked up): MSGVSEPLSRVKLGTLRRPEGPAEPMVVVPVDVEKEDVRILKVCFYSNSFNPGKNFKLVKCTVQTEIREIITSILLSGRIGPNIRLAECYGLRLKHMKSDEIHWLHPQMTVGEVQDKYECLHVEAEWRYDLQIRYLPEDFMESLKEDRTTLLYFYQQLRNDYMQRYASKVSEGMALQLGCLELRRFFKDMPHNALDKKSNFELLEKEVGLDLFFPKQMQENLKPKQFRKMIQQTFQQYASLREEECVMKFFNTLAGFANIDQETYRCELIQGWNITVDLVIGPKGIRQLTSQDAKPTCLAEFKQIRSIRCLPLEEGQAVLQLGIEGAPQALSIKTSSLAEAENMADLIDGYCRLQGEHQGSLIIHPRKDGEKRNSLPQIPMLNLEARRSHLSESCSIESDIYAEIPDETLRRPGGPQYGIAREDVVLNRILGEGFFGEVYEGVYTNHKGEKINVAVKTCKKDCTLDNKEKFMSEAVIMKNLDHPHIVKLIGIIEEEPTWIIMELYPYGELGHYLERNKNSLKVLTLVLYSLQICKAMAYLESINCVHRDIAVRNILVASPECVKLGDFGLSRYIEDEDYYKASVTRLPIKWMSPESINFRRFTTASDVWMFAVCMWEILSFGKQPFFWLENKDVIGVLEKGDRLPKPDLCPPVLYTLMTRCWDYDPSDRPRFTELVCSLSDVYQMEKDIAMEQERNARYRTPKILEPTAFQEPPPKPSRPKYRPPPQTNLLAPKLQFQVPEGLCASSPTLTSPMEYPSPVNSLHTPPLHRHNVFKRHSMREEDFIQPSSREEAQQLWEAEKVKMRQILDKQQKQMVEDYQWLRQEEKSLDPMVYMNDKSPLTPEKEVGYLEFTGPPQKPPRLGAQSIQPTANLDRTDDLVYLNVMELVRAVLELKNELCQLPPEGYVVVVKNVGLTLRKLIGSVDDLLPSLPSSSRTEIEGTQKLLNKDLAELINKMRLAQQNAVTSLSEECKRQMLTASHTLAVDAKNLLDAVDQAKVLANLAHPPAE
Cyclin-dependent kinase 11A (Homo sapiens), sequence (Q9UQ88 whole entry): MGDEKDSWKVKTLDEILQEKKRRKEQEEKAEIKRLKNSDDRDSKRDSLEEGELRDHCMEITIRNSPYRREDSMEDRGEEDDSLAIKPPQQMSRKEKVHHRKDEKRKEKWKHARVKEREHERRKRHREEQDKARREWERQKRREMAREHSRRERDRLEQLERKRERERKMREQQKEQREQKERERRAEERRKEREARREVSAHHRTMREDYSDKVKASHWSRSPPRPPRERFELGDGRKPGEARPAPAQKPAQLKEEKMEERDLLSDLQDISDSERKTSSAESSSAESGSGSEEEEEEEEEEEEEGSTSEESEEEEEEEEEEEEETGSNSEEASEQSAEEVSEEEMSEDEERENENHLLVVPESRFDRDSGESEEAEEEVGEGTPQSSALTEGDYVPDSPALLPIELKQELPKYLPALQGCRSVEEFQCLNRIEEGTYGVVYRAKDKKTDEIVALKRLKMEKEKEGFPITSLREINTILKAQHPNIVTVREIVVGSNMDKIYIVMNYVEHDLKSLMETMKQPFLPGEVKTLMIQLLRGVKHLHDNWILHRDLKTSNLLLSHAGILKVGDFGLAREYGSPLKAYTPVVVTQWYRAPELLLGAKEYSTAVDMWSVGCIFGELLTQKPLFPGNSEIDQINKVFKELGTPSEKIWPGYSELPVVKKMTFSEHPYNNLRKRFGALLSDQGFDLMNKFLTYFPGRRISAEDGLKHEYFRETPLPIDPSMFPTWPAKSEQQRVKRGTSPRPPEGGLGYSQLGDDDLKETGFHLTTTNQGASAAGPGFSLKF
Serine/threonine-protein kinase DCLK3 (Homo sapiens), sequence (Q9C098 whole entry): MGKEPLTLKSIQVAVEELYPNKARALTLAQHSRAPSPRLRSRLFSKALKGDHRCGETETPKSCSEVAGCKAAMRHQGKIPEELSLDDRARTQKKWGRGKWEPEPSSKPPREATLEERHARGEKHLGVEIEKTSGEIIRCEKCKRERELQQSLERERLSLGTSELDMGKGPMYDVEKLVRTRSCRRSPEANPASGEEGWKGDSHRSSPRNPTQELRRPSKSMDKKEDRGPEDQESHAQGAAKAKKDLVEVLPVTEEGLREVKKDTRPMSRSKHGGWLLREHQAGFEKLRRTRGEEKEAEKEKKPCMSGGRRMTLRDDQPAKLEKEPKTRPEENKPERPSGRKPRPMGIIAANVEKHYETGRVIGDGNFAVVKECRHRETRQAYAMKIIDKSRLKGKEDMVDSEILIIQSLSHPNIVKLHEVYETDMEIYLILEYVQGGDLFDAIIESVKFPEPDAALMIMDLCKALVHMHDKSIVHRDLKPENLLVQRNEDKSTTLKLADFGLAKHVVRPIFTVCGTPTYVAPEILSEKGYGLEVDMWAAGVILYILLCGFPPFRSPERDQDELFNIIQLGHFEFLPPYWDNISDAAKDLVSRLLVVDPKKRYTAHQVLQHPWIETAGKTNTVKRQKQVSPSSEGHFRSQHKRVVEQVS
Cyclin-dependent kinase 18 (Homo sapiens), sequence (Q07002 whole entry): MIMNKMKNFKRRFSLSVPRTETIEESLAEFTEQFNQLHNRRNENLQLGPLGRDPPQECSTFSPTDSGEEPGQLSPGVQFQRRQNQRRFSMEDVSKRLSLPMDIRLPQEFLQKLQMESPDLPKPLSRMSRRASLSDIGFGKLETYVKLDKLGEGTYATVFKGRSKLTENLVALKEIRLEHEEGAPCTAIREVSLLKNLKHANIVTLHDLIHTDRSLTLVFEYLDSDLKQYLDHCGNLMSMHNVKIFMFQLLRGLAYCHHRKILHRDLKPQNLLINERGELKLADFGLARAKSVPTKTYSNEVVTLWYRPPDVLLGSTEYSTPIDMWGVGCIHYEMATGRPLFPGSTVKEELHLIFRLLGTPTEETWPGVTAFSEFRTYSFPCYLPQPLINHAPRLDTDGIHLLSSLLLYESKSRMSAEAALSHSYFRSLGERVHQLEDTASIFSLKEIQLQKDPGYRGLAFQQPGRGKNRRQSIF

## O=c1nc(-c2ccccn2)sc2ccccc12 [BTZO-1]
[1]
  residual activity: 58%
[2]
  residual activity: 100%
[3]
  residual activity: 97%
[4]
  residual activity: 98%
[5]
  residual activity: 91%
[6]
  residual activity: 93%
[7]
  residual activity: 100%
[8]
  residual activity: 66%
[9]
  residual activity: 100%
[10]
  residual activity: 100%
[11]
  residual activity: 100%
[12]
  residual activity: 100%
[13]
  inhibition: 20.1%
[14]
  residual activity: 74%
[15]
  residual activity: 36%
[16]
  residual activity: 95%
[17]
  residual activity: 74%
[18]
  residual activity: 100%
[19]
  residual activity: 91%
[20]
  residual activity: 73%
[21]
  residual activity: 100%
[22]
  residual activity: 79%
[23]
  residual activity: 71%
[24]
  residual activity: 100%
[25]
  residual activity: 100%
[26]
  inhibition: 5.17%
[27]
  residual activity: 100%
[28]
  residual activity: 100%
[29]
  residual activity: 100%
[30]
  inhibition: -8.56%
[31]
  residual activity: 96%
[32]
  residual activity: 100%
[33]
  residual activity: 94%
[34]
  residual activity: 82%
[35]
  residual activity: 70%
[36]
  residual activity: 97%
[37]
  inhibition: 9.84%
[38]
  residual activity: 94%
[39]
  residual activity: 100%
[40]
  residual activity: 99%
[41]
  residual activity: 84%
[42]
  residual activity: 100%
[43]
  residual activity: 100%
[44]
  residual activity: 80%
[45]
  residual activity: 71%

## O=C1NC(c2ccccn2)Sc2ccccc21 (stereo not given) [BTZO-4]
[1]
  residual activity: 51%
[2]
  residual activity: 100%
[3]
  residual activity: 69%
[4]
  residual activity: 86%
[5]
  residual activity: 84%
[6]
  residual activity: 97%
[7]
  residual activity: 100%
[8]
  residual activity: 58%
[9]
  residual activity: 94%
[10]
  residual activity: 100%
[11]
  residual activity: 100%
[12]
  residual activity: 100%
[13]
  inhibition: 32.4%
[14]
  residual activity: 88%
[15]
  residual activity: 78%
[16]
  residual activity: 98%
[17]
  residual activity: 60%
[18]
  residual activity: 88%
[19]
  residual activity: 81%
[20]
  residual activity: 89%
[21]
  residual activity: 100%
[22]
  residual activity: 89%
[23]
  residual activity: 79%
[24]
  residual activity: 100%
[25]
  residual activity: 100%
[26]
  inhibition: 13.7%
[27]
  residual activity: 96%
[28]
  residual activity: 90%
[29]
  residual activity: 100%
[30]
  inhibition: -1.52%
[31]
  residual activity: 90%
[32]
  residual activity: 86%
[33]
  residual activity: 93%
[34]
  residual activity: 100%
[35]
  residual activity: 86%
[36]
  residual activity: 100%
[37]
  inhibition: -5.82%
[38]
  residual activity: 100%
[39]
  residual activity: 76%
[40]
  residual activity: 100%
[41]
  residual activity: 100%
[42]
  residual activity: 100%
[43]
  residual activity: 100%
[44]
  residual activity: 95%
[45]
  residual activity: 68%
